US11622974B2, “Prebiotic composition and its use” (CP KELCO U.S., INC., priority 2019, dated 2023)

What was measured:
[1] = system: Caco-2/THP1-Blue™ co-cultures; test: Caco-2/THP1-Blue co-culture: transepithelial electrical resistance (TEER); assay type: cell-based, human; details: control tests, apical treatment 24 h, versus complete medium
Source text: To mimic the interface between host and gut microbiome, several in vitro models have been developed in the past years which include the use of intestinal epithelial-like cells and immune cells of human origin. The model used herein was a co-culture model of intestinal epithelial-like cells (Caco-2 cells) and human monocytes/macrophages (THP1 cells). (See FIG. 14; see also Possemiers (2013) Satsu (2006).) Caco-2, when seeded on suitable supports, spontaneously differentiate into mature enterocyte-like cells, characterized by polarization, presence of villi, formation of domes, presence of tight junctions and vectorial transport and expression of apical brush-border enzymes (reviewed by Sambuy (2005)). THP1 monocytes, isolated from a human patient with acute leukemia, differentiate into macrophage-like cells upon phorbol 12-myristate 13-acetate (PMA) treatment. […] The ‘tightness’ of these junctions can be measured as transepithelial electrical resistance (TEER), with a high TEER corresponding to a tighter barrier. Upon loss of barrier function, the paracellular transport (in-between cells) of fluids increases, which can be measured as a reduction of the TEER. […] This is possibly due to cytokine-mediated disruption of tight junctions and can be measured as a decrease in TEER. […]

[2] = system: NF-κB; test: Caco-2/THP1-Blue co-culture: NF-κB activity after LPS; assay type: cell-based, human; details: control tests, versus LPS+
Source text: (§1) Samples collected from the SHIME experiment described above were used to evaluate in vitro the effect of the fermented products on intestinal epithelial barrier function and immune markers. These include samples from the proximal and distal colon reactors of three different donors, collected at the end of the control and treatment periods.
THP1-Blue™ (InvivoGen) cells were maintained in Roswell Park Memorial Institute (RPMI) 1640 medium containing glucose and glutamine, supplemented with HEPES, sodium pyruvate and 10% (v/v) H1-FBS. THP1-Blue™ are THP1 human monocytes stably transfected with a reporter construct expressing a secreted alkaline phosphatase (SEAP) gene under the control of a promoter inducible by the transcription factor nuclear factor kappa B (NF-κB). Upon TLR activation (e.g., by lipopolysaccharide (LPS); isolated from Gram-negative bacteria), NF-κB becomes activated and induces the expression and secretion of SEAP. SEAP activity can then be measured in the supernatants by using the QUANTI-Blue reagent (InvivoGen). […]
Briefly, the apical compartment (containing the Caco-2 cells) was filled with sterile-filtered (0.22 μm) colonic SHIME suspensions or with different concentrations of live bacteria. […] Cells were treated for 24 h, after which the TEER was measured (=24 h time point). […]

[3] = system: IL-6; test: Caco-2/THP1-Blue co-culture: IL-6 secretion after LPS; assay type: cell-based, human; details: control tests, versus LPS+
Source text: as §1
(§2) Briefly, the apical compartment (containing the Caco-2 cells) was filled with sterile-filtered (0.22 μm) colonic SHIME suspensions or with different concentrations of live bacteria. Cells were also treated apically with sodium butyrate (NaB) (Sigma-Aldrich) as positive control. The basolateral compartment (containing the THP1-Blue™ cells) was filled with Caco-2 complete medium. Cells were also exposed to Caco-2 complete medium in both chambers as control. Cells were treated for 24 h, after which the TEER was measured (=24 h time point). After subtracting the TEER of the empty insert, all 24 h values were normalized to its own 0 h value (to account for the differences in initial TEER of the different inserts) and are presented as percentage of initial value. Then, the basolateral supernatant was discarded, and cells were stimulated at the basolateral side with Caco-2 complete medium containing ultrapure LPS (Escherichia coli K12, InvivoGen). […]

[4] = system: IL-10; test: Caco-2/THP1-Blue co-culture: IL-10 secretion after LPS; assay type: cell-based, human; details: control tests, versus LPS+
Source text: as §1, §2

[5] = system: IL-1β; test: Caco-2/THP1-Blue co-culture: IL-1β secretion after LPS; assay type: cell-based, human; details: control tests, versus LPS+
Source text: as §1, §2

[6] = system: TNF-α; test: Caco-2/THP1-Blue co-culture: TNF-α secretion after LPS; assay type: cell-based, human; details: control tests, versus LPS+
Source text: as §1, §2

[7] = system: IL-8; test: Caco-2/THP1-Blue co-culture: IL-8 secretion after LPS; assay type: cell-based, human; details: control tests, versus LPS+
Source text: as §1, §2

[8] = system: CXCL10; test: Caco-2/THP1-Blue co-culture: CXCL10 secretion after LPS; assay type: cell-based, human; details: control tests, versus LPS+
Source text: as §1, §2

[9] = system: MCP-1; test: Caco-2/THP1-Blue co-culture: MCP-1 secretion after LPS; assay type: cell-based, human; details: control tests, versus LPS+
Source text: as §1, §2

[10] = system: Bifidobacterium; test: i-screen in vitro fermentation of fecal microbiota pool: Bifidobacterium growth; assay type: cell-based; details: second i-screen, relative to untreated control (1.0)
Experimental: (§3) Samples containing 8 mg/mL (0.8% w/v) of SPS or SOS were diluted by a factor of two to provide samples containing 4 mg/mL (0.4% w/v) of SPS or SOS. The effect of Sample Nos. 1-12 at a concentration of 4 mg/mL on a panel of over twenty-five gut microbiota was assessed after 24 h of fermentation using an in vitro fermentation screening platform (“i-screen”), as described by Fehlbaum (2018). Specifically, a standard fecal microbiota pool derived from 5-6 healthy adults (health based on exclusion criteria) was used that was pre-cultured overnight from a frozen stock. […] A number of sphingan samples and comparative samples—plant extracts (e.g., pectins, pectin oligosaccharides, and carrageenans) and biogums (e.g., xanthan and xanthan oligosaccharides)) were analyzed at a concentration of about 4 mg/mL, which corresponds to a dose of about 4 g/day. […]
(§4) Shifts in microbiota composition were determined by next generation sequencing, which recognizes bacteria at the genus level and in many cases (but not all) at the species level. To have a uniform distribution of samples in the sequencing pool total bacterial load was established by a quantitative Polymerase Chain Reaction (“PCR”) using a universal primer-probe set. […] Next, amplicons were gel-purified, quantified and pooled. […]
(§5) The standard controls were carried out in triplicate. […] The effect was determined relative to an untreated control. […]

[11] = system: Blautia; test: i-screen in vitro fermentation of fecal microbiota pool: Blautia growth; assay type: cell-based; details: second i-screen, pool H1, relative to untreated control (1.0)
Experimental: as §3, §4, §5

[12] = system: Faecalibacterium; test: i-screen in vitro fermentation of fecal microbiota pool: Faecalibacterium growth; assay type: cell-based; details: second i-screen, pool H1, relative to untreated control (1.0)
Experimental: as §3, §4, §5

[13] = system: Parabacteroides; test: i-screen in vitro fermentation of fecal microbiota pool: Parabacteroides growth; assay type: cell-based; details: second i-screen, pool H1, relative to untreated control (1.0)
Experimental: as §3, §4, §5

[14] = system: Lachnospiraceae unclassified; test: i-screen in vitro fermentation: Lachnospiraceae unclassified growth; assay type: cell-based; details: second i-screen, relative to untreated control (1.0)
Experimental: as §3, §4, §5

[15] = system: Clostridium XlVa; test: i-screen in vitro fermentation: Clostridium XlVa growth; assay type: cell-based; details: second i-screen, relative to untreated control (1.0)
Experimental: The effect of Sample Nos. 1-12 at a concentration of 4 mg/mL on a panel of over twenty-five gut microbiota was assessed after 24 h of fermentation using an in vitro fermentation screening platform (“i-screen”), as described by Fehlbaum (2018). Specifically, a standard fecal microbiota pool derived from 5-6 healthy adults (health based on exclusion criteria) was used that was pre-cultured overnight from a frozen stock. This was followed by dilution in microtiter plates in which the samples were added and subsequently anaerobically incubated for 24 h at 37° C. After incubation, culture samples were harvested and processed for further analysis. […] A number of sphingan samples and comparative samples—plant extracts (e.g., pectins, pectin oligosaccharides, and carrageenans) and biogums (e.g., xanthan and xanthan oligosaccharides)) were analyzed at a concentration of about 4 mg/mL, which corresponds to a dose of about 4 g/day.

[16] = system: Coprococcus; test: i-screen in vitro fermentation: Coprococcus growth; assay type: cell-based; details: second i-screen, relative to untreated control (1.0)
Experimental: as §3, §4, §5

[17] = system: Phascolarctobacterium; test: i-screen in vitro fermentation: Phascolarctobacterium growth; assay type: cell-based; details: second i-screen, relative to untreated control (1.0)
Experimental: as §3, §4, §5

[18] = system: Butyricicoccus; test: i-screen in vitro fermentation: Butyricicoccus growth; assay type: cell-based; details: second i-screen, relative to untreated control (1.0)
Experimental: as §3, §4, §5

Structure (SMILES) | TEER of the Caco-2 monolayer [1] | LPS-induced NF-κB transcriptional activity [2] | LPS-induced IL-6 secretion [3] | LPS-induced IL-10 secretion [4] | LPS-induced IL-1β expression [5] | LPS-induced TNF-α [6] | LPS-induced IL-8 [7] | LPS-induced CXCL10 [8] | LPS-induced MCP-1 [9] | Bifid. growth [10] | Blaut. growth [11] | Faecal. growth [12] | Para. growth [13] | Lachn. U. growth [14] | ClX1Va growth [15] | Copro. growth [16] | Phasc. growth [17] | Butyr. growth [18]
CCCC(=O)[O-].[Na+] [NaB, sodium butyrate] | maintain the TEER | increased | selectively increased | selectively increased | did not reduce | selectively inhibited | selectively inhibited | selectively inhibited | selectively inhibited |  |  |  |  |  |  |  |  | 
C[C@]12CCC(=O)C=C1CC[C@@H]1[C@@H]2[C@@H](O)C[C@@]2(C)[C@H]1CC[C@]2(O)C(=O)CO [HC, hydrocortisone] |  | inhibiting |  |  | did not reduce |  |  |  |  |  |  |  |  |  |  |  |  | 
CC1(C)S[C@@H]2[C@H](NC(=O)[C@H](N)c3ccc(O)cc3)C(=O)N2[C@H]1C(=O)O [CS20, Amoxicillin] |  |  |  |  |  |  |  |  |  | 0.24 | 0.23 | 0.37 | 12.10 | 0.04 | 0.03 | 0.04 | 0.08 | 0.00
